According to the NIST ThermoML archive (doi:10.1021/je034177v):

Test: xn = mol fraction of the nth substance listed
Conditions: 101 kPa, Liquid; for speed of sound: Pulse-echo method; for mass density: Vibrating tube method

ClCCCCCCl [1,5-dichloropentane] + CCCCCCCCCCCC
Conditions | mass density [kg/m3] | speed of sound [m/s]
278.15 K, x1 = 0.05237 | 769.83 | 1353.9
278.15 K, x1 = 0.1014 | 780 | 1351.3
278.15 K, x1 = 0.2008 | 802.34 | 1347.1
278.15 K, x1 = 0.3039 | 827.99 | 1344.1
278.15 K, x1 = 0.3945 | 852.98 | 1342.4
278.15 K, x1 = 0.4983 | 884.91 | 1342.1
278.15 K, x1 = 0.6014 | 920.97 | 1343.6
278.15 K, x1 = 0.6987 | 959.17 | 1347.1
278.15 K, x1 = 0.7975 | 1003.24 | 1353.4
278.15 K, x1 = 0.9021 | 1056.96 | 1363.5
278.15 K, x1 = 0.9497 | 1084.25 | 1369.5
278.15 K, x1 = 1 | 1115.28 | 1376.6
283.15 K, x1 = 0.05237 | 766.19 | 1334.4
283.15 K, x1 = 0.1014 | 776.32 | 1331.9
283.15 K, x1 = 0.2008 | 798.55 | 1327.8
283.15 K, x1 = 0.3039 | 824.08 | 1324.9
283.15 K, x1 = 0.3945 | 848.97 | 1323.6
283.15 K, x1 = 0.4983 | 880.76 | 1323.4
283.15 K, x1 = 0.6014 | 916.68 | 1325.1
283.15 K, x1 = 0.6987 | 954.72 | 1328.9
283.15 K, x1 = 0.7975 | 998.63 | 1335.3
283.15 K, x1 = 0.9021 | 1052.15 | 1345.6
283.15 K, x1 = 0.9497 | 1079.35 | 1351.7
283.15 K, x1 = 1 | 1110.26 | 1358.9
288.15 K, x1 = 0.05237 | 762.54 | 1314.6
288.15 K, x1 = 0.1014 | 772.61 | 1312.2
288.15 K, x1 = 0.2008 | 794.74 | 1308.2
288.15 K, x1 = 0.3039 | 820.16 | 1305.7
288.15 K, x1 = 0.3945 | 844.93 | 1304.4
288.15 K, x1 = 0.4983 | 876.58 | 1304.5
288.15 K, x1 = 0.6014 | 912.36 | 1306.4
288.15 K, x1 = 0.6987 | 950.25 | 1310.3
288.15 K, x1 = 0.7975 | 993.99 | 1317
288.15 K, x1 = 0.9021 | 1047.3 | 1327.5
288.15 K, x1 = 0.9497 | 1074.4 | 1333.7
288.15 K, x1 = 1 | 1105.2 | 1341
293.15 K, x1 = 0.05237 | 758.89 | 1295.1
293.15 K, x1 = 0.1014 | 768.91 | 1292.8
293.15 K, x1 = 0.2008 | 790.94 | 1289
293.15 K, x1 = 0.3039 | 816.25 | 1286.6
293.15 K, x1 = 0.3945 | 840.9 | 1285.5
293.15 K, x1 = 0.4983 | 872.42 | 1285.7
293.15 K, x1 = 0.6014 | 908.04 | 1287.9
293.15 K, x1 = 0.6987 | 945.78 | 1292
293.15 K, x1 = 0.7975 | 989.35 | 1298.8
293.15 K, x1 = 0.9021 | 1042.45 | 1309.5
293.15 K, x1 = 0.9497 | 1069.46 | 1315.8
293.15 K, x1 = 1 | 1100.16 | 1323.2
298.15 K, x1 = 0.05237 | 755.23 | 1275.6
298.15 K, x1 = 0.1014 | 765.22 | 1273.5
298.15 K, x1 = 0.2008 | 787.14 | 1269.8
298.15 K, x1 = 0.3039 | 812.33 | 1267.5
298.15 K, x1 = 0.3945 | 836.86 | 1266.6
298.15 K, x1 = 0.4983 | 868.24 | 1267
298.15 K, x1 = 0.6014 | 903.71 | 1269.3
298.15 K, x1 = 0.6987 | 941.31 | 1273.7
298.15 K, x1 = 0.7975 | 984.72 | 1280.7
298.15 K, x1 = 0.9021 | 1037.61 | 1291.6
298.15 K, x1 = 0.9497 | 1064.51 | 1298
298.15 K, x1 = 1 | 1095.11 | 1305.4
303.15 K, x1 = 0.05237 | 751.58 | 1256.4
303.15 K, x1 = 0.1014 | 761.51 | 1254.2
303.15 K, x1 = 0.2008 | 783.32 | 1250.7
303.15 K, x1 = 0.3039 | 808.4 | 1248.6
303.15 K, x1 = 0.3945 | 832.82 | 1247.8
303.15 K, x1 = 0.4983 | 864.07 | 1248.4
303.15 K, x1 = 0.6014 | 899.38 | 1250.9
303.15 K, x1 = 0.6987 | 936.82 | 1255.4
303.15 K, x1 = 0.7975 | 980.06 | 1262.6
303.15 K, x1 = 0.9021 | 1032.76 | 1273.8
303.15 K, x1 = 0.9497 | 1059.56 | 1280.3
303.15 K, x1 = 1 | 1090.07 | 1287.9
308.15 K, x1 = 0.05237 | 747.91 | 1237.3
308.15 K, x1 = 0.1014 | 757.8 | 1235.2
308.15 K, x1 = 0.2008 | 779.49 | 1231.8
308.15 K, x1 = 0.3039 | 804.47 | 1229.8
308.15 K, x1 = 0.3945 | 828.76 | 1229.2
308.15 K, x1 = 0.4983 | 859.88 | 1230
308.15 K, x1 = 0.6014 | 895.05 | 1232.7
308.15 K, x1 = 0.6987 | 932.33 | 1237.4
308.15 K, x1 = 0.7975 | 975.41 | 1244.8
308.15 K, x1 = 0.9021 | 1027.91 | 1256.1
308.15 K, x1 = 0.9497 | 1054.61 | 1262.7
308.15 K, x1 = 1 | 1085.02 | 1270.3
313.15 K, x1 = 0.05237 | 744.24 | 1218.4
313.15 K, x1 = 0.1014 | 754.07 | 1216.4
313.15 K, x1 = 0.2008 | 775.66 | 1213.2
313.15 K, x1 = 0.3039 | 800.53 | 1211.4
313.15 K, x1 = 0.3945 | 824.71 | 1210.9
313.15 K, x1 = 0.4983 | 855.7 | 1211.8
313.15 K, x1 = 0.6014 | 890.7 | 1214.6
313.15 K, x1 = 0.6987 | 927.83 | 1219.6
313.15 K, x1 = 0.7975 | 970.74 | 1227
313.15 K, x1 = 0.9021 | 1023.05 | 1238.5
313.15 K, x1 = 0.9497 | 1049.66 | 1245.2
313.15 K, x1 = 1 | 1079.97 | 1253
318.15 K, x1 = 0.05237 | 740.56 | 1199.7
318.15 K, x1 = 0.1014 | 750.34 | 1197.7
318.15 K, x1 = 0.2008 | 771.82 | 1194.6
318.15 K, x1 = 0.3039 | 796.59 | 1192.9
318.15 K, x1 = 0.3945 | 820.64 | 1192.5
318.15 K, x1 = 0.4983 | 851.51 | 1193.6
318.15 K, x1 = 0.6014 | 886.36 | 1196.7
318.15 K, x1 = 0.6987 | 923.36 | 1201.7
318.15 K, x1 = 0.7975 | 966.1 | 1209.5
318.15 K, x1 = 0.9021 | 1018.21 | 1221.1
318.15 K, x1 = 0.9497 | 1044.74 | 1227.9
318.15 K, x1 = 1 | 1074.95 | 1235.8
323.15 K, x1 = 0.05237 | 736.88 | 1181
323.15 K, x1 = 0.1014 | 746.61 | 1179.3
323.15 K, x1 = 0.2008 | 767.98 | 1176.2
323.15 K, x1 = 0.3039 | 792.63 | 1174.7
323.15 K, x1 = 0.3945 | 816.57 | 1174.4
323.15 K, x1 = 0.4983 | 847.29 | 1175.6
323.15 K, x1 = 0.6014 | 882 | 1178.8
323.15 K, x1 = 0.6987 | 918.84 | 1184.1
323.15 K, x1 = 0.7975 | 961.42 | 1191.9
323.15 K, x1 = 0.9021 | 1013.35 | 1203.8
323.15 K, x1 = 0.9497 | 1039.77 | 1210.6
323.15 K, x1 = 1 | 1069.89 | 1218.7
328.15 K, x1 = 0.05237 | 733.17 | 1162.7
328.15 K, x1 = 0.1014 | 742.86 | 1160.8
328.15 K, x1 = 0.2008 | 764.14 | 1157.9
328.15 K, x1 = 0.3039 | 788.68 | 1156.5
328.15 K, x1 = 0.3945 | 812.52 | 1156.4
328.15 K, x1 = 0.4983 | 843.12 | 1157.7
328.15 K, x1 = 0.6014 | 877.69 | 1161.2
328.15 K, x1 = 0.6987 | 914.4 | 1166.5
328.15 K, x1 = 0.7975 | 956.8 | 1174.5
328.15 K, x1 = 0.9021 | 1008.57 | 1186.6
328.15 K, x1 = 0.9497 | 1034.9 | 1193.5
328.15 K, x1 = 1 | 1064.93 | 1201.6
